These are literature values, as cited in patent publication US20250235554A1, “METHODS FOR IMPROVING ADENO-[…] (AAV) […]” (Novartis AG, priority 2021, published 2025).

The series deals with glymphatic flow. Particulars: mice and rats.

Regarding `Cc1cccc([C@H](C)c2cnc[nH]2)c1C` [Dexmedetomidine], the “effect on brain and spinal cord exposure of intrathecally administered drugs” value was “increases brain and spinal cord drug exposure of intrathecally administered drugs”.
